From PMC5564600 (Oncotarget, 2017)
Where two headings read alike, the source gives them in different places.

Key:
Test in all cases: biochemical
Format in all cases: binding
panel of 442 kinases [1] = target: T1, panel of 442 kinases (Homo sapiens, UniProt Q99640); conditions: kinase PKMYT1; for remaining activity at 1 µM: read-out: PKMYT1 (% of control at 1 µM)
T1 construct: purchased Ambit Biosciences (scanMAXX KINOMEscan)
T1 sequence (Q99640 1-499): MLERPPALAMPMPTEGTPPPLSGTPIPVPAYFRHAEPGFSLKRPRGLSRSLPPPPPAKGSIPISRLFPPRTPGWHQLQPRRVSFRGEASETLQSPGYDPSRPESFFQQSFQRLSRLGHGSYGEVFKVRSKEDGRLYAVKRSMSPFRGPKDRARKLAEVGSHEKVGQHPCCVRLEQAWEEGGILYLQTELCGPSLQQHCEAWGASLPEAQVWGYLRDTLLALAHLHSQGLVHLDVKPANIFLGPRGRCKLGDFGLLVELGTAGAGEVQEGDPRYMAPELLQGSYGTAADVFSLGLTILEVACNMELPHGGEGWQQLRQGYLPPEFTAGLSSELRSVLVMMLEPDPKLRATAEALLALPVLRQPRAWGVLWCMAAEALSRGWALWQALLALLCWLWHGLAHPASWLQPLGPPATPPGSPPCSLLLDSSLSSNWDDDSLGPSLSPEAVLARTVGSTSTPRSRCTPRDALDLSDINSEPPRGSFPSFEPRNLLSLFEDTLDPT

panel of 442 kinases [2] = target: T2, panel of 442 kinases (Homo sapiens, UniProt P50613); conditions: CDK7; for remaining activity at 1 µM: read-out: % of control at 1 µM
T2 construct: purchased Ambit Biosciences (scanMAXX KINOMEscan)
T2 sequence (P50613 whole entry): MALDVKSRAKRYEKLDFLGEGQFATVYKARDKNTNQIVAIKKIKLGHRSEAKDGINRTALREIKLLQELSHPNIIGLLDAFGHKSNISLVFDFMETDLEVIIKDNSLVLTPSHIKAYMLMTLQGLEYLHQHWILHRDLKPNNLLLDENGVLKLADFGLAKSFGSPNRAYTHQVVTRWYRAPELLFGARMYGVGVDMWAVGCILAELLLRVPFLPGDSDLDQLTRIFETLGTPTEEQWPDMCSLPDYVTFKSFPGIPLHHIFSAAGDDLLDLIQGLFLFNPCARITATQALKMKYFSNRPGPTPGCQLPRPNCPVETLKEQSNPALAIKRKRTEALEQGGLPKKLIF

panel of 442 kinases [3] = target: T3, panel of 442 kinases (Homo sapiens, UniProt Q9BYT3); conditions: kinase STK33; for remaining activity at 1 µM: read-out: STK33 (% of control at 1 µM)
T3 construct: purchased Ambit Biosciences (scanMAXX KINOMEscan)
T3 sequence (Q9BYT3 whole entry): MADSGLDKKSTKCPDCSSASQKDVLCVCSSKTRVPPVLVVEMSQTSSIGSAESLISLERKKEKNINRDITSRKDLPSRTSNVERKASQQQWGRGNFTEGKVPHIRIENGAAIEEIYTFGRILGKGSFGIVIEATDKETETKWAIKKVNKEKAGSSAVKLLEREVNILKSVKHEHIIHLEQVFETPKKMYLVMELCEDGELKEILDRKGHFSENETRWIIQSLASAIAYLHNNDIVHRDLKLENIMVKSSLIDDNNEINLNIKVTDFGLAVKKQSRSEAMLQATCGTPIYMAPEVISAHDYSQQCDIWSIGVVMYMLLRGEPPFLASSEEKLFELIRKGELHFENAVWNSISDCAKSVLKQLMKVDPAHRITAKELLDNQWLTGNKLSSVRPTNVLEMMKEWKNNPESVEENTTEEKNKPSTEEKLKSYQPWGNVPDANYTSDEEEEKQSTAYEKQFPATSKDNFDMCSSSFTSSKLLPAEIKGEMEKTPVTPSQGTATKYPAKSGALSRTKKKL

panel of 442 kinases [4] = target: T4, panel of 442 kinases (Homo sapiens, UniProt O75582)
T4 construct: purchased Ambit Biosciences (scanMAXX KINOMEscan)
T4 sequence (O75582 whole entry): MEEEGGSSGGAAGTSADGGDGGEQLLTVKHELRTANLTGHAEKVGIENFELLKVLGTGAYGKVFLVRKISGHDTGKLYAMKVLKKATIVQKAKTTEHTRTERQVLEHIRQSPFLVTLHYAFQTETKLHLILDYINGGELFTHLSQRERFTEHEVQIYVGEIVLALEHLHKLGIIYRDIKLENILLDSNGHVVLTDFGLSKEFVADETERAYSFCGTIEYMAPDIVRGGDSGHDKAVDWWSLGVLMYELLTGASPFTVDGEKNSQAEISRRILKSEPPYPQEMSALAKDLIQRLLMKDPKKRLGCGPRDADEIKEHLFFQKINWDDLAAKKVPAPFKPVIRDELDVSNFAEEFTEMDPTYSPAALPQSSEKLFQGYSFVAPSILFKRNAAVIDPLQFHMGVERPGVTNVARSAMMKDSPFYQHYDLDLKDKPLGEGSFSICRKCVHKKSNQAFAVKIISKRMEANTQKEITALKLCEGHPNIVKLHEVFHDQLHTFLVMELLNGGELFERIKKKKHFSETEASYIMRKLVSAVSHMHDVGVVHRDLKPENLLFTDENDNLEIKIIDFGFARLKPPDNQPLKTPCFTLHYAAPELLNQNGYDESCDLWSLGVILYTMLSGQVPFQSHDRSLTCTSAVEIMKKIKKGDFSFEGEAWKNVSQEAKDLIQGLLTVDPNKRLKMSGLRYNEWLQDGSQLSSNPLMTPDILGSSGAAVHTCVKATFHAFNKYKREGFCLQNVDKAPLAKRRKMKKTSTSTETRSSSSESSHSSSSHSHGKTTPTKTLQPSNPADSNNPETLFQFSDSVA

panel of 442 kinases [5] = target: T5, panel of 442 kinases (Homo sapiens, UniProt P06213); conditions: kinase INSR; for remaining activity at 1 µM: read-out: % of control at 1 µM
T5 construct: purchased Ambit Biosciences (scanMAXX KINOMEscan)
T5 sequence (P06213 28-1382): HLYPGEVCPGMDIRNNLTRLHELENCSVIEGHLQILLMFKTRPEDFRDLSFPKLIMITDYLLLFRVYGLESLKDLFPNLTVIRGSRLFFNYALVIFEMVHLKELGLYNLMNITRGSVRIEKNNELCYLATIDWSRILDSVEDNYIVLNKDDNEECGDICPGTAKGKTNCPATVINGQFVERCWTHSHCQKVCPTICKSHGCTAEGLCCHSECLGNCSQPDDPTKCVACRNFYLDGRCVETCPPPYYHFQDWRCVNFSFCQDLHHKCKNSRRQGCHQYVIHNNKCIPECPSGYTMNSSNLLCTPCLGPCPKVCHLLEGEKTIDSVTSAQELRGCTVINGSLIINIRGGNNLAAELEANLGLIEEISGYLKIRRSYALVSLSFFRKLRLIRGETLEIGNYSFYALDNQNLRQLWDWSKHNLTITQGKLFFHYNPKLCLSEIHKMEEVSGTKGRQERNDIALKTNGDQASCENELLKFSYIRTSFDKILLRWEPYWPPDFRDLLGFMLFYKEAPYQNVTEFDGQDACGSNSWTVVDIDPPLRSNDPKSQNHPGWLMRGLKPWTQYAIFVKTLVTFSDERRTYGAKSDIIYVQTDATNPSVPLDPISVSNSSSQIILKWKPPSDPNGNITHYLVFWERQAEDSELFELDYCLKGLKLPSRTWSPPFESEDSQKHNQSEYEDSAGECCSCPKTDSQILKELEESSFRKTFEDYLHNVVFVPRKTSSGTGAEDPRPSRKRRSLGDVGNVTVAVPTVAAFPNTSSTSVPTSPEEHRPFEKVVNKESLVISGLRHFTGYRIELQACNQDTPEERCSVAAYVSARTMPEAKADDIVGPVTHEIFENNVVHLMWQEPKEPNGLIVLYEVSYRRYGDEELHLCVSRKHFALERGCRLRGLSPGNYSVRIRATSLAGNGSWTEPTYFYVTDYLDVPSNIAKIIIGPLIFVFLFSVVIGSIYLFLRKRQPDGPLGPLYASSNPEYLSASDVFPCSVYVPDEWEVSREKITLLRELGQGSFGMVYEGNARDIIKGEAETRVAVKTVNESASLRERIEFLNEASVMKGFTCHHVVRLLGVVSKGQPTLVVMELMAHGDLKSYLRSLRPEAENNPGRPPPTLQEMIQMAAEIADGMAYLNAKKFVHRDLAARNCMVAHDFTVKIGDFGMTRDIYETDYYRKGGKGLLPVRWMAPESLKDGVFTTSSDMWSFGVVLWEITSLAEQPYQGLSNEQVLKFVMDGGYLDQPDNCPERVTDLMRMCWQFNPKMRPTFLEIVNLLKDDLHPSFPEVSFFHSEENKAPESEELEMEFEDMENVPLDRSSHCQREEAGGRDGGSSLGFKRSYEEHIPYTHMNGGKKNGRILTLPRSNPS

panel of 442 kinases [6] = target: T6, panel of 442 kinases (Homo sapiens, UniProt P78362); conditions: kinase SRPK2; for remaining activity at 1 µM: read-out: SRPK2 (% of control at 1 µM)
T6 construct: purchased Ambit Biosciences (scanMAXX KINOMEscan)
T6 sequence (P78362 whole entry): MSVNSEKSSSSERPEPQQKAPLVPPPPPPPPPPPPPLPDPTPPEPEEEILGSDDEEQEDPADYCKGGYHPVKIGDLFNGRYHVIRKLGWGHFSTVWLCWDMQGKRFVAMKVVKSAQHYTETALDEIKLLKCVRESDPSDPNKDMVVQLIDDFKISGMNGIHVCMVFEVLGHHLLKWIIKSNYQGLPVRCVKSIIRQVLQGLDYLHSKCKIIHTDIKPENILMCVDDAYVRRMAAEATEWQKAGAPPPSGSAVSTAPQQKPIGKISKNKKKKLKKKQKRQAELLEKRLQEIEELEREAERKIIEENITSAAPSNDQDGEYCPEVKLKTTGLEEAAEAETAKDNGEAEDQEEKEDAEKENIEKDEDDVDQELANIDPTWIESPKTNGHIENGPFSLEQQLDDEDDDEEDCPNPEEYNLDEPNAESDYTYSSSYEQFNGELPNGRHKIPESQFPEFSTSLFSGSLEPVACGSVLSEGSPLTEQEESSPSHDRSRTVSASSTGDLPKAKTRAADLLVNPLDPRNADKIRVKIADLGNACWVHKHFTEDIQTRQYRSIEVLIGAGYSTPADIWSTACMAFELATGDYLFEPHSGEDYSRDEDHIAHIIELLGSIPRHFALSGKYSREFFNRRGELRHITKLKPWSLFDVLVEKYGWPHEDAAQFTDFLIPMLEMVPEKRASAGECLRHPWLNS

panel of 442 kinases [7] = target: T7, panel of 442 kinases (Homo sapiens, UniProt P29320); conditions: EPHA3; for remaining activity at 1 µM: read-out: % of control at 1 µM
T7 construct: purchased Ambit Biosciences (scanMAXX KINOMEscan)
T7 sequence (P29320 21-983): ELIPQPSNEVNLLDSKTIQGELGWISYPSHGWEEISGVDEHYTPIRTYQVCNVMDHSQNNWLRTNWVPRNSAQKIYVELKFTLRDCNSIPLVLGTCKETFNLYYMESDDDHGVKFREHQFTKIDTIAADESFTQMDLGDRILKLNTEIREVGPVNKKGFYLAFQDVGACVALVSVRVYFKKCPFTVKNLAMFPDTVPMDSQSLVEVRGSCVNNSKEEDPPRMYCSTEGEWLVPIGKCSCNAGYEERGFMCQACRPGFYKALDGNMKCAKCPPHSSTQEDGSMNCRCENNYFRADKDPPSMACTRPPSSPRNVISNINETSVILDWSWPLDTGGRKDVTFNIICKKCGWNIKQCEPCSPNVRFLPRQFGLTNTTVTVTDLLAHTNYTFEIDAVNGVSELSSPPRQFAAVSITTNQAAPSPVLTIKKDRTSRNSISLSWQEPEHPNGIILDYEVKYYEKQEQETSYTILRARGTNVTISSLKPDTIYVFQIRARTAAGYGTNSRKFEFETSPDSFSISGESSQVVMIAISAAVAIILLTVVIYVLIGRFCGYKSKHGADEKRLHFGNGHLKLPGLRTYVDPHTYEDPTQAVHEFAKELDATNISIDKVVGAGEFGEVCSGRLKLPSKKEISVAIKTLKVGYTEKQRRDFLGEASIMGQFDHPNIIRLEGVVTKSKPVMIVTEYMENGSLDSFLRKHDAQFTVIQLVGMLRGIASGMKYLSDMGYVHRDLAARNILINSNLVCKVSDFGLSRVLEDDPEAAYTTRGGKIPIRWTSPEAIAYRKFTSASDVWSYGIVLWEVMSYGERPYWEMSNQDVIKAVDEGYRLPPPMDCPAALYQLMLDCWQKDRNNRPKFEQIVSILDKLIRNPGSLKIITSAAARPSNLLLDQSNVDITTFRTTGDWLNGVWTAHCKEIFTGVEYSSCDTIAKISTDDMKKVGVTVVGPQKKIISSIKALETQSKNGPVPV

panel of 442 kinases [8] = target: T8, panel of 442 kinases (Homo sapiens, UniProt P28482); conditions: ERK2; for remaining activity at 1 µM: read-out: % of control at 1 µM
T8 construct: purchased Ambit Biosciences (scanMAXX KINOMEscan)
T8 sequence (P28482 whole entry): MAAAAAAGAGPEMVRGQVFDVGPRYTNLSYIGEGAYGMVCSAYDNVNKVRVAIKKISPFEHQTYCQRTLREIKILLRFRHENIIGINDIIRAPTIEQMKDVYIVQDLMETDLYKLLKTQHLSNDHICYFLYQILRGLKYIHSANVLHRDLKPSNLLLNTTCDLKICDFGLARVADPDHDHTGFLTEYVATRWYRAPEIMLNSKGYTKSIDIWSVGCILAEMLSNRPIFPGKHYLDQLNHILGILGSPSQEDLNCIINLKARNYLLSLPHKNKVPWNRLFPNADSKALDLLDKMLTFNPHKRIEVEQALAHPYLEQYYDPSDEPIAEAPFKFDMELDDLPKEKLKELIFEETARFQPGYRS

panel of 442 kinases [9] = target: T9, panel of 442 kinases (Homo sapiens, UniProt P11802); conditions: for remaining activity at 1 µM: read-out: % of control at 1 µM; for remaining activity at 10 µM: read-out: % of control at 10 µM
T9 construct: purchased Ambit Biosciences (scanMAXX KINOMEscan)
T9 sequence (P11802 whole entry): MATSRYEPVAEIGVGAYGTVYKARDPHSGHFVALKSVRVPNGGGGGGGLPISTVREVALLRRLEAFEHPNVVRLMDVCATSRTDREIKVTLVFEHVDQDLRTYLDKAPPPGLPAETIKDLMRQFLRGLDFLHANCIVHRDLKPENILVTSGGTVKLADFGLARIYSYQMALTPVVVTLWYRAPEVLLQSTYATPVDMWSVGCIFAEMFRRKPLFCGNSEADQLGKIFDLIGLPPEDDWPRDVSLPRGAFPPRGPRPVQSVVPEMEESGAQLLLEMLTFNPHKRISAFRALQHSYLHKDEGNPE

[10] = 10 µM, read-out: % of control at 10 µM
[11] = kinase RPS6KA5(Kin.Dom.1-N-terminal), read-out: RPS6KA5(Kin.Dom.1-N-terminal) (% of control at 1 µM)
[12] = kinase RPS6KA5(Kin.Dom.2-C-terminal), read-out: RPS6KA5(Kin.Dom.2-C-terminal) (% of control at 1 µM)

| SMILES | remaining activity at 1 µM (panel of 442 kinases [1]) | remaining activity at 1 µM (panel of 442 kinases [2]) | remaining activity at 1 µM (panel of 442 kinases [3]) | remaining activity at 1 µM (panel of 442 kinases [4]; [11]) | remaining activity at 1 µM (panel of 442 kinases [4]; [12]) | remaining activity at 1 µM (panel of 442 kinases [5]) | remaining activity at 1 µM (panel of 442 kinases [6]) | remaining activity at 1 µM (panel of 442 kinases [7]) | remaining activity at 1 µM (panel of 442 kinases [8]) | remaining activity at 1 µM (panel of 442 kinases [9]; CDK4-cyclinD1) | remaining activity at 1 µM (panel of 442 kinases [9]; CDK4-cyclinD3) | other results |
| --- | --- | --- | --- | --- | --- | --- | --- | --- | --- | --- | --- | --- |
| Nc1cc(C(F)(F)F)c(-c2cc(N3CCOCC3)nc(N3CCOCC3)n2)cn1 [Buparlisib] | 100% | 93% | 90% | 100% | 74% | 91% | 78% | 96% | 100% | 82% | 91% | remaining activity at 10 µM (panel of 442 kinases [1]; 10 µM, read-out: PKMYT1 (% of control at 10 µM)): 100%; remaining activity at 10 µM (panel of 442 kinases [2]; [10]): 100%; remaining activity at 10 µM (panel of 442 kinases [3]; 10 µM, read-out: STK33 (% of control at 10 µM)): 97%; remaining activity at 10 µM (panel of 442 kinases [4]; kinase RPS6KA5(Kin.Dom.1-N-terminal), read-out: RPS6KA5(Kin.Dom.1-N-terminal) (% of control at 10 µM)): 100%; remaining activity at 10 µM (panel of 442 kinases [4]; kinase RPS6KA5(Kin.Dom.2-C-terminal), read-out: RPS6KA5(Kin.Dom.2-C-terminal) (% of control at 10 µM)): 96%; remaining activity at 10 µM (panel of 442 kinases [5]; [10]): 77%; remaining activity at 10 µM (panel of 442 kinases [6]; 10 µM, read-out: SRPK2 (% of control at 10 µM)): 100%; remaining activity at 10 µM (panel of 442 kinases [7]; [10]): 100%; remaining activity at 10 µM (panel of 442 kinases [8]; [10]): 78%; remaining activity at 10 µM (panel of 442 kinases [9]; CDK4-cyclinD1): 100%; remaining activity at 10 µM (panel of 442 kinases [9]; CDK4-cyclinD3): 100% |
| Cn1c(=O)n(-c2ccc(C(C)(C)C#N)cc2)c2c3cc(-c4cnc5ccccc5c4)ccc3ncc21 [Dactolisib, 2-methyl-2-[4-(3-methyl-2-oxo-8-quinolin-3-yl-2,3-dihydroimidazo[4,5-c]quinolin-1-yl)-phenyl] propionitrile] | 75% | 57% | 100% | 64% | 100% | 74% | 100% | 63% | 88% | 100% | 97% |  |
| COc1ncc(-c2ccc3nccc(-c4ccnnc4)c3c2)cc1NS(=O)(=O)c1ccc(F)cc1F [Omipalisib] | 81% | 100% | 100% | 100% | 100% | 92% | 100% | 100% | 100% | 100% | 100% |  |
| FC(F)c1nc2ccccc2n1-c1nc(N2CCOCC2)nc(N2CCOCC2)n1 [ZSTK474, 2-(difluoromethyl)-1-[4,6-di(4-morpholinyl)-1,3,5-triazin-2-yl]-1H-benzimidazole] | 72% | 68% | 100% | 81% | 100% | 94% | 100% | 93% | 100% | 90% | 100% |  |
